Measured values as given in US6444616B1, “Substituted p-trifluoromethylphenyluracils” (Bayer Aktiengesellschaft, priority 1999, dated 2002).

Assays:
[1] = system: Sinapis; assay: Pre-emergence test; format: in vivo; conditions: rated after 3 weeks, application rate not stated
Protocol: (§1) Solvent: 5 parts by weight of acetone
(§2) Emulsifier: 1 part by weight of alkylaryl polyglycol ether
(§3) To produce a suitable preparation of active compound, 1 part by weight of active compound is mixed with the stated amount of solvent, the stated amount of emulsifier is added and the concentrate is diluted with water to the desired concentration.
(§4) Seeds of the test plants are sown in normal soil. After about 24 hours, the soil is sprayed with the preparation of active compound in such a way as to apply the particular amounts of active compound desired per unit area. The concentration of the spray liquor is chosen so that the particular amounts of active compound desired are applied in 1000 l of water/ha.
(§5) After 3 weeks, the degree of damage to plants is rated in % damage in comparison to the development of the untreated control.
(§6) 0%=no effect (like untreated control)

[2] = system: Cyperus; assay: Pre-emergence test; format: in vivo; conditions: rated after 3 weeks, application rate not stated, 0%=no effect, 100%=total destruction
Protocol: as §1, §2, §3, §4, §5, §6

[3] = system: Solanum; assay: Postemergence test; format: in vivo; conditions: plants 5-15 cm sprayed, rated after 3 weeks, application rate not stated
Protocol: as §1, §2
(§7) To produce an effective preparation of active compound, 1 part by weight of active compound is mixed with the stated amount of solvent, the stated amount of emulsifier is added and the concentrate is diluted with water to the desired concentration.
as §4, with “Test plants which have a height” for “Seeds”, “5-15 cm” for “the test plants”, “are” for “are sown in normal soil. After about 24 hours, the soil is”
(§8) After 3 weeks, the degree of damage to the plants is rated in % damage in comparison to the development of the untreated control.
as §6

[4] = system: Matricaria; assay: Postemergence test; format: in vivo; conditions: plants 5-15 cm sprayed, rated after 3 weeks, application rate not stated
Protocol: as §1, §2, §7
as §4, with “Test plants which have a height” for “Seeds”, “5-15 cm” for “the test plants”, “are” for “are sown in normal soil. After about 24 hours, the soil is”
as §8, §6

[5] = system: polygonum; assay: Postemergence test; format: in vivo; conditions: plants 5-15 cm sprayed, rated after 3 weeks, application rate not stated
Protocol: as §1, §2, §7
as §4, with “Test plants which have a height” for “Seeds”, “5-15 cm” for “the test plants”, “are” for “are sown in normal soil. After about 24 hours, the soil is”
as §8, §6

[6] = system: datura; assay: Postemergence test; format: in vivo; conditions: plants 5-15 cm sprayed, rated after 3 weeks, application rate not stated
Protocol: as §1, §2, §7
as §4, with “Test plants which have a height” for “Seeds”, “5-15 cm” for “the test plants”, “are” for “are sown in normal soil. After about 24 hours, the soil is”
as §8, §6

[7] = system: Sinapis; assay: Postemergence test; format: in vivo; conditions: plants 5-15 cm sprayed, rated after 3 weeks, application rate not stated
Protocol: as §1, §2, §7
as §4, with “Test plants which have a height” for “Seeds”, “5-15 cm” for “the test plants”, “are” for “are sown in normal soil. After about 24 hours, the soil is”
as §8, §6

[8] = system: Ipomoea; assay: Postemergence test; format: in vivo; conditions: plants 5-15 cm sprayed, rated after 3 weeks, application rate not stated
Protocol: as §1, §2, §7
as §4, with “Test plants which have a height” for “Seeds”, “5-15 cm” for “the test plants”, “are” for “are sown in normal soil. After about 24 hours, the soil is”
as §8, §6

[9] = system: Abutilon; assay: Postemergence test; format: in vivo; conditions: plants 5-15 cm sprayed, rated after 3 weeks, application rate not stated
Protocol: as §1, §2, §7
as §4, with “Test plants which have a height” for “Seeds”, “5-15 cm” for “the test plants”, “are” for “are sown in normal soil. After about 24 hours, the soil is”
as §8, §6

| SMILES | melting point | degree of damage to plants, % damage vs untreated control [1] | degree of damage to plants, % damage vs untreated control [2] | degree of damage to the plants, % damage vs untreated control [3] | degree of damage to the plants, % damage vs untreated control [4] | degree of damage to the plants, % damage vs untreated control [5] | degree of damage to the plants, % damage vs untreated control [6] | degree of damage to the plants, % damage vs untreated control [7] | degree of damage to the plants, % damage vs untreated control [8] | degree of damage to the plants, % damage vs untreated control [9] |
| --- | --- | --- | --- | --- | --- | --- | --- | --- | --- | --- |
| O=c1cc(C(F)(F)F)[nH]c(=O)n1-c1cc(F)c(C(F)(F)F)cc1F [Example 1, 1-(2,5-difluoro4-trifluoromethyl-phenyl)-3,6-dihydro-2,6-dioxo-4-trifluoromethyl-1(2H)-pyrimidine] | 217 °C | – | – | – | – | – | – | – | – | – |
| Cn1c(C(F)(F)F)cc(=O)n(-c2cc(F)c(C(F)(F)F)cc2F)c1=O [Example 2, 1-(2,5-difluoro-4-trifluoromethyl-phenyl)-3,6-dihydro-2,6-dioxo-3-methyl-4-trifluoromethyl-1 (2H)-pyrimidine] | 110 °C | 100% | 80% | 100% | 100% | 95% | 100% | 100% | 100% | 100% |

Now from value to compound, other results behind:

| melting point | SMILES | degree of damage to plants, % damage vs untreated control [1] | degree of damage to plants, % damage vs untreated control [2] | degree of damage to the plants, % damage vs untreated control [3] | degree of damage to the plants, % damage vs untreated control [4] | degree of damage to the plants, % damage vs untreated control [5] | degree of damage to the plants, % damage vs untreated control [6] | degree of damage to the plants, % damage vs untreated control [7] | degree of damage to the plants, % damage vs untreated control [8] | degree of damage to the plants, % damage vs untreated control [9] |
| --- | --- | --- | --- | --- | --- | --- | --- | --- | --- | --- |
| 157 °C | Nn1c(C(F)(F)F)cc(=O)n(-c2cc(F)c(C(F)(F)F)cc2F)c1=O [Example 3, 3-amino-1-(2,5-difluoro-4-trifluoromethyl-phenyl)-3,6-dihydro-2,6-dioxo-4-trifluoromethyl-1 (2H)-pyrimidine] | – | – | – | – | – | – | – | – | – |
| 163 °C | Cn1c(C(F)(F)F)cc(=O)n(-c2cc(NS(C)(=O)=O)c(C(F)(F)F)cc2F)c1=O [Example 5] | 100% | 80% | 100% | 100% | 95% | 100% | 100% | 100% | 100% |
| 227 °C | CS(=O)(=O)Nc1cc(-n2c(=O)cc(C(F)(F)F)[nH]c2=O)c(F)cc1C(F)(F)F [Example 4] | 100% | 80% | 100% | 100% | 95% | 100% | 100% | 100% | 100% |
